Assay [1] concerns IKKε-mediated phosphorylation of IRF3. In words: In-situ phosphorylation of IRF3 (pIRF3 Ser396 ELISA) in HEK293T cells cotransfected with IRF3 and IKKε. The class given is cell-based. Particulars: Homo sapiens, HEK-293T. The essentials: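 Cells for the IRF7 Western blots carried IRF7 and TBK1 plasmids, were seeded at 150,000/well, exposed to compound overnight and probed for pSer477/Ser479 IRF7. The ELISA readout used IRF3 + IKKε-cotransfected HEK293T at 20,000/well with 20 h treatment, quantifying pSer396 IRF3 relative to DMSO, plus a parallel CellTiter-Glo viability check.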
In general terms: An ELISA detects its analyte on a solid surface through an enzyme-linked reagent.

A further assay deals with T1, IKKε (Homo sapiens, UniProt Q14164).
T1 construct: His-tag; made in house; host or cells: Sf9 insect cells
T1 sequence (Q14164 1-716): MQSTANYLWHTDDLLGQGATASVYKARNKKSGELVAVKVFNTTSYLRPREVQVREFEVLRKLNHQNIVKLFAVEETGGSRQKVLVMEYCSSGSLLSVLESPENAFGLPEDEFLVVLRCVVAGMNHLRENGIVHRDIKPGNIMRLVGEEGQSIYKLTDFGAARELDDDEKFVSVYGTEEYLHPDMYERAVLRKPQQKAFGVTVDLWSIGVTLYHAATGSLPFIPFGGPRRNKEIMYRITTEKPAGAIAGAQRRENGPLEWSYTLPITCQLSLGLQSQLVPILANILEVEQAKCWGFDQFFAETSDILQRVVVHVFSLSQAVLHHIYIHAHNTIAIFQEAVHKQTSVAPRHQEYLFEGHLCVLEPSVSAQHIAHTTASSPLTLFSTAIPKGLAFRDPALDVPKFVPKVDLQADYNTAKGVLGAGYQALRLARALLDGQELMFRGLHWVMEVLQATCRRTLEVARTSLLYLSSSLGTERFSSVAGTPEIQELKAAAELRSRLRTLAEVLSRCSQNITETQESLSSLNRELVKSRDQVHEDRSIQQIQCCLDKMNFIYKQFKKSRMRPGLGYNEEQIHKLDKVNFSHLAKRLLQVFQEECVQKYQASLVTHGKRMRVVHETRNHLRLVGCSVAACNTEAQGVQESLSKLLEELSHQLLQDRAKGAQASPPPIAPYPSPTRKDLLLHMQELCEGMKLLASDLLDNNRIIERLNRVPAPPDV
In words: In-vitro IKKε kinase assay ([γ33]ATP filter-plate). The class given is biochemical. The essentials:
(§1)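 Phosphorylation of casein or myelin basic protein was counted by P-81 filter capture after 30-45 min reactions stopped with phosphoric acid, with counts normalized to DMSO after background subtraction. ATP was twice Km: 60 μM for TBK1 and 32 μM for IKKε, plus [γ33]ATP. Sf9-expressed His-tag enzymes were used at normal/sensitized levels of 0.1/0.02 μg/ml (TBK1) and 0.1/0.015 μg/ml (IKKε).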

Another assay concerns the target T2, TBK1 (Homo sapiens, UniProt Q9UHD2).
T2 construct: His-tag; made in house; host or cells: Sf9 insect cells
T2 sequence (Q9UHD2 1-729): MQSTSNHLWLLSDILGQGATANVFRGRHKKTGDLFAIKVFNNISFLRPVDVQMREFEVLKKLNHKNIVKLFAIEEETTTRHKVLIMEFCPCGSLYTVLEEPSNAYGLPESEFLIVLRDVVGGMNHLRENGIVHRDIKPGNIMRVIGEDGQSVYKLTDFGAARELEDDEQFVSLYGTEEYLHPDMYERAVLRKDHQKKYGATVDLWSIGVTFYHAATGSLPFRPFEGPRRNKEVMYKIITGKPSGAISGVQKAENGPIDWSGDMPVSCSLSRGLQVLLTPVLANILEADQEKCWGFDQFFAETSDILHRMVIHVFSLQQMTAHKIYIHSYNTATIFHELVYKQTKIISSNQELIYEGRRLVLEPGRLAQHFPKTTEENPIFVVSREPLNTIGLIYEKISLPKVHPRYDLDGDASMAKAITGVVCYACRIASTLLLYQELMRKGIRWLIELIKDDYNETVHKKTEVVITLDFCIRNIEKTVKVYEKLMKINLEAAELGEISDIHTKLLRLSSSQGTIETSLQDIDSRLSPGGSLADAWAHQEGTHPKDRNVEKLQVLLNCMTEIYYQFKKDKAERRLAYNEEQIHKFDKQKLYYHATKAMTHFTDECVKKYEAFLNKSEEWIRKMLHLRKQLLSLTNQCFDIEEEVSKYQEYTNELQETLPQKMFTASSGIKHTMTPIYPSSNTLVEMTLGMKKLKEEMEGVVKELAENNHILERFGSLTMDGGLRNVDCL
In words: In-vitro TBK1 kinase assay ([γ33]ATP filter-plate). The class given is biochemical. In a few lines: as §1

The mark [2] stands for this setting: HEK293T cells in culture, Table 3, read-out: pIRF3 ELISA IC50.
Setting [3] is: HEK293T cells, 20 hours, text bins, read-out: IC50 for inhibition of the in-situ IKKε-mediated phosphorylation of IRF3.
[4] abbreviates: text bins, read-out: IC50 for inhibition of the kinase activity of IKKε.
[5] abbreviates: text bins, read-out: IC50 for inhibition of the kinase activity of TBK1.

This is an account of results in patent publication US20150352108A1, “AMINO-PYRIMIDINE COMPOUNDS AS INHIBITORS OF TBK1 AND/OR IKK EPSILON” (Alzheimer's Institute of America, priority 2009, published 2015).

One may read the IC50 as the concentration that gives 50% inhibition.

Each structure is given as a SMILES string. Read-outs that look alike come from different tables or passages of the source. Where only a bound is given, the exact number is not on record here.

As to `N#Cc1cc(-c2ccnc(Nc3cccc(NC(=O)N4CCC(O)C4)c3)n2)ccc1OC1CCOCC1` (centres unmarked) [compound 536, N-[3-({4-[3-Cyano-4-(tetrahydro-2H-pyran-4-yloxy)phenyl]pyrimidin-2-yl}amino)phenyl]-3-hydroxypyrrolidine-1-carboxamide], the IC50 in assay [1] (setting [2]) is 61.9 nM; in assay [1] (setting [3]), < 100 nM; on IKKε (Table 3, read-out: IKKε IC50), 0.3 nM; at IKKε (setting [4]) it was < 5 nM; at TBK1 (Table 3, read-out: TBK1 IC50), 1.3 nM; at TBK1 (setting [5]), < 10 nM.

As for `COCCNC(=O)c1ccc(Nc2nccc(-c3ccc(NC(=O)C4CC4)c(C#N)c3)n2)cc1` [compound 537], the 50% inhibitory concentration (IC50) lay in the range of 100 to 250 nM in assay [1] (setting [3]), 5 to 50 nM at IKKε (setting [4]) and 10 to 100 nM on TBK1 (setting [5]).

In the case of `COCCNC(=O)Nc1cccc(Nc2nccc(-c3ccc(OC4CCOCC4)c(C#N)c3)n2)c1` [compound 543, 1-[3-({4-[3-Cyano-4-(tetrahydro-2H-pyran-4-yloxy)phenyl]pyrimidin-2-yl}amino)phenyl]-3-(2-methoxyethyl)urea], the IC50 is 50.3 nM in assay [1] (setting [2]); < 100 nM in assay [1] (setting [3]); 1.1 nM on IKKε (Table 3, read-out: IKKε IC50); < 5 nM on IKKε (setting [4]); 1.3 nM at TBK1 (Table 3, read-out: TBK1 IC50); < 10 nM at TBK1 (setting [5]).

Turning to `COCCNCc1ccc(Nc2nccc(-c3ccc(NC(=O)C4CC4)c(C#N)c3)n2)cc1OC` [compound 556], the IC50 in assay [1] (setting [3]) was < 100 nM; on IKKε (setting [4]), 5 to 50 nM; at TBK1 (setting [5]), < 10 nM.

Take `Cc1ccc(Nc2nccc(-c3ccc(OC4CCOCC4)c(C#N)c3)n2)cc1OCCN` [compound 559, 5-(2-{[3-(2-Aminoethoxy)-4-methylphenyl]amino}pyrimidin-4-yl)-2-(tetrahydro-2H-pyran-4-yloxy)benzonitrile]: the IC50 in assay [1] (setting [3]) is < 100 nM; at IKKε (setting [4]), < 5 nM; at TBK1 (setting [5]), < 10 nM.

In the case of `N#Cc1cc(-c2ccnc(Nc3cccc(CN4CCC(O)C4)c3)n2)ccc1OC1CCOCC1` (centres unmarked) [compound 561, 5-[2-({3-[(3-Hydroxypyrrolidin-1-yl)methyl]phenyl}amino)pyrimidin-4-yl]-2-(tetrahydro-2H-pyran-4-yloxy)benzonitrile], the IC50 in assay [1] (setting [2]) was 56 nM; in assay [1] (setting [3]) it was < 100 nM; on IKKε (Table 3, read-out: IKKε IC50) it was 0.4 nM; on IKKε (setting [4]) it was < 5 nM; on TBK1 (Table 3, read-out: TBK1 IC50) it was 0.7 nM; at TBK1 (setting [5]), < 10 nM.

Consider `COc1cc(Nc2nccc(-c3ccc(OC4CCOCC4)c(C#N)c3)n2)ccc1C(=O)N1CCC1` [compound 567, 5-(2-{[4-(Azetidin-1-ylcarbonyl)-3-methoxyphenyl]amino}pyrimidin-4-yl)-2-(tetrahydro-2H-pyran-4-yloxy)benzonitrile], for which the IC50 was < 100 nM in assay [1] (setting [3]), < 5 nM at IKKε (setting [4]) and < 10 nM on TBK1 (setting [5]).

Regarding `CC(C)N1CCN(CCOc2cc(Nc3nccc(-c4ccc(OCC5CC5)c(C#N)c4)n3)ccc2F)CC1` [compound 574, 2-(Cyclopropylmethoxy)-5-{2-[(4-fluoro-3-{2-[4-(propan-2-yl)piperazin-1-yl]ethoxy}phenyl)amino]pyrimidin-4-yl}benzonitrile], the IC50 in assay [1] (setting [3]) was 100 to 250 nM; at IKKε (setting [4]) it was < 5 nM; on TBK1 (setting [5]), < 10 nM.

Take `CCN(CC)CCOc1cc(Nc2nccc(-c3ccc(OC4CCOCC4)c(C#N)c3)n2)ccc1F` [compound 586, 5-[2-({3-[2-(Diethylamino)ethoxy]-4-fluorophenyl}amino)pyrimidin-4-yl]-2-(tetrahydro-2H-pyran-4-yloxy)benzonitrile]: the values for the IC50 (in assay [1] (setting [3]); on IKKε (setting [4]); at TBK1 (setting [5])) were 100 to 250 nM, < 5 nM and < 10 nM, respectively.

Turning to `COc1cc(Nc2nccc(-c3ccc(O[C@@H]4CCN(C(=O)CO)C4)c(C#N)c3)n2)ccc1N1CCOCC1` [compound 588, 2-{[(3R)-1-(hydroxyacetyl)pyrrolidin-3-yl]oxy}-5-(2-{[3-methoxy-4-(morpholin-4-yl)phenyl]amino}pyrimidin-4-yl)benzonitrile], the IC50 in assay [1] (setting [2]) is 31 nM; in assay [1] (setting [3]), < 100 nM; on IKKε (Table 3, read-out: IKKε IC50), 0.3 nM; at IKKε (setting [4]) it was < 5 nM; on TBK1 (Table 3, read-out: TBK1 IC50) it was 0.3 nM; on TBK1 (setting [5]) it was < 10 nM.

Turning to `N#Cc1cc(-c2ccnc(Nc3cccc(-c4nnn[nH]4)c3)n2)ccc1OC1CCOCC1` [compound 594, 2-(Tetrahydro-2H-pyran-4-yloxy)-5-(2-{[3-(1H-tetrazol-5-yl)phenyl]amino}pyrimidin-4-yl)benzonitrile], the IC50 was > 5000 nM in assay [1] (setting [2]); 0.3 nM on IKKε (Table 3, read-out: IKKε IC50); < 5 nM at IKKε (setting [4]); 2 nM at TBK1 (Table 3, read-out: TBK1 IC50); < 10 nM at TBK1 (setting [5]).

For `Cc1ccc(Nc2nccc(-c3ccc(OC4CCOCC4)c(C#N)c3)n2)cc1OCCN1CCN(C(C)C)CC1` [compound 597, 5-{2-[(4-Methyl-3-{2-[4-(propan-2-yl)piperazin-1-yl]ethoxy}phenyl)amino]pyrimidin-4-yl}-2-(tetrahydro-2H-pyran-4-yloxy)benzonitrile], the IC50 in assay [1] (setting [3]) is 100 to 250 nM; on IKKε (setting [4]), < 5 nM; at TBK1 (setting [5]) it was < 10 nM.

On to `CCOC1CN(C(=O)c2ccc(Nc3nccc(-c4ccc(OC5CCOCC5)c(C#N)c4)n3)cc2OC)C1` [compound 599, 5-[2-({4-[(3-Ethoxyazetidin-1-yl)carbonyl]-3-methoxyphenyl}amino)pyrimidin-4-yl]-2-(tetrahydro-2H-pyran-4-yloxy)benzonitrile], for which the IC50 in assay [1] (setting [3]) was < 100 nM; on IKKε (setting [4]), < 5 nM; at TBK1 (setting [5]) it was < 10 nM.

With `CN(C)S(=O)(=O)Cc1cccc(Nc2nccc(-c3ccc(OC4CCOCC4)c(C#N)c3)n2)c1` [compound 601, 1-[3-({4-[3-Cyano-4-(tetrahydro-2H-pyran-4-yloxy)phenyl]pyrimidin-2-yl}amino)phenyl]-N,N-dimethylmethane-sulfonamide], the IC50 in assay [1] (setting [2]) was 276 nM; in assay [1] (setting [3]) it was 250 to 500 nM; at IKKε (Table 3, read-out: IKKε IC50) it was 2.4 nM; at IKKε (setting [4]) it was < 5 nM; on TBK1 (Table 3, read-out: TBK1 IC50), 0.4 nM; at TBK1 (setting [5]), < 10 nM.

With `COc1cc(Nc2nccc(-c3ccc(NC(=O)C4CC4)c(C#N)c3)n2)ccc1C(=O)N1CC(OC)C1` [compound 603, N-{2-Cyano-4-[2-({3-methoxy-4-[(3-methoxyazetidin-1-yl)carbonyl]phenyl}amino)pyrimidin-4-yl]phenyl} cyclopropane-carboxamide], the IC50 in assay [1] (setting [3]) is 100 to 250 nM; on IKKε (setting [4]), < 5 nM; at TBK1 (setting [5]), < 10 nM.

With `N#Cc1cc(-c2ccnc(Nc3ccc(F)c(OCCN)c3)n2)ccc1OCC1CC1` [compound 612, 5-(2-{[3-(2-Aminoethoxy)-4-fluorophenyl]amino}pyrimidin-4-yl)-2-(cyclopropylmethoxy) benzonitrile], the figures for the IC50 (in assay [1] (setting [3]); on IKKε (setting [4]); at TBK1 (setting [5])) were 100 to 250 nM, < 5 nM and < 10 nM, respectively.
